Details: 283.14 K, Liquid, Vibrating tube method

CCCCCCC(=O)OCC(COC(=O)CCCCCC)(COC(=O)CCCCCC)COC(=O)CCCCCC [pentaerythritol tetraheptanoate]
Details | mass density [kg/m3]
28046 kPa | 1001
28067 kPa | 1001
28089 kPa | 1001.1
28108 kPa | 1001.1
28129 kPa | 1001.2
28154 kPa | 1001.1
28174 kPa | 1001.2
28195 kPa | 1001.1
28219 kPa | 1001
28239 kPa | 1001.2
28263 kPa | 1001.3
28285 kPa | 1001.2
28305 kPa | 1001.2
28326 kPa | 1001.3
28352 kPa | 1001.1
28370 kPa | 1001.3
28395 kPa | 1001.3
28416 kPa | 1001.2
28441 kPa | 1001.3
28461 kPa | 1001.4
28482 kPa | 1001.2
28503 kPa | 1001.3
28528 kPa | 1001.3
28550 kPa | 1001.3
28575 kPa | 1001.4
28596 kPa | 1001.4
28617 kPa | 1001.3
28642 kPa | 1001.4
28664 kPa | 1001.4
28685 kPa | 1001.4
28707 kPa | 1001.4
28732 kPa | 1001.3
28753 kPa | 1001.4
28775 kPa | 1001.4
28801 kPa | 1001.5
28822 kPa | 1001.5
28848 kPa | 1001.4
28870 kPa | 1001.4
28891 kPa | 1001.4
28912 kPa | 1001.6
28939 kPa | 1001.6
28961 kPa | 1001.6
28983 kPa | 1001.6
29009 kPa | 1001.5
29031 kPa | 1001.6
29058 kPa | 1001.4
29080 kPa | 1001.6
29101 kPa | 1001.6
29123 kPa | 1001.6
29150 kPa | 1001.7
29172 kPa | 1001.6
29195 kPa | 1001.6
29221 kPa | 1001.7
29244 kPa | 1001.7
29267 kPa | 1001.7
29290 kPa | 1001.7
29317 kPa | 1001.7
29339 kPa | 1001.7
29361 kPa | 1001.8
29388 kPa | 1001.7
29411 kPa | 1001.7
29438 kPa | 1001.9
29460 kPa | 1001.9
29483 kPa | 1001.8
29506 kPa | 1001.8
29534 kPa | 1001.9
29557 kPa | 1001.9
29579 kPa | 1001.8
29608 kPa | 1001.8
29631 kPa | 1001.8
29654 kPa | 1001.9
29681 kPa | 1001.9
29704 kPa | 1002
29727 kPa | 1001.8
29755 kPa | 1001.9
29778 kPa | 1001.9
29801 kPa | 1002
29829 kPa | 1001.9
29852 kPa | 1002
29876 kPa | 1002
29904 kPa | 1002
29928 kPa | 1002
29951 kPa | 1002
29975 kPa | 1002
30004 kPa | 1002
30027 kPa | 1002
30051 kPa | 1002
30079 kPa | 1002
30102 kPa | 1002.1
30131 kPa | 1002.2
30156 kPa | 1002.2
30180 kPa | 1002.1
30206 kPa | 1002.2
30254 kPa | 1002.2
30284 kPa | 1002.1
30307 kPa | 1002.2
30336 kPa | 1002.2
30361 kPa | 1002.3
30385 kPa | 1002.3
30410 kPa | 1002.2
30440 kPa | 1002.3
30465 kPa | 1002.3
30490 kPa | 1002.3
30520 kPa | 1002.3
30546 kPa | 1002.3
30571 kPa | 1002.2
30595 kPa | 1002.3
30620 kPa | 1002.4
30650 kPa | 1002.3
30675 kPa | 1002.4
30700 kPa | 1002.4

Reference: the NIST ThermoML archive (doi:10.1021/je060271a)
